Laboratory results taken from ChEMBL document CHEMBL1201862, “PubChem BioAssay data set” (2004).
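Values below derive from 48-hour exposures of cells grown in 96-well plates, with endpoints linearly interpolated between the two concentrations bracketing the appropriate inhibition level. GI50 = concentration required for 50% inhibition of growth.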 Active and inactive are the calls of the source. Rule as the data show it: active = GI50 up to about 1.1 µM and inactive = higher.

Key:
Assay in all cases: NCI tumour cell line growth inhibition, 48 h
OVCAR-3 = system: OVCAR-3
LXFL 529 = system: LXFL 529
SR = system: SR
K562 = system: K562
IGROV-1 = system: IGROV-1
MOLT-4 = system: MOLT-4
M14 = system: M14
UO-31 = system: UO-31
SN12C = system: SN12C
SNB-75 = system: SNB-75
M19-MEL = system: M19-MEL
OVCAR-8 = system: OVCAR-8
CAKI-1 = system: CAKI-1
SK-MEL-5 = system: SK-MEL-5
A549 = system: A549
KM-20L2 = system: KM-20L2
U-251 = system: U-251
SNB-19 = system: SNB-19
SW-620 = system: SW-620
OVCAR-5 = system: OVCAR-5
ACHN = system: ACHN
SNB-78 = system: SNB-78
EKVX = system: EKVX
SK-MEL-28 = system: SK-MEL-28
KM12 = system: KM12
RXF 631 = system: RXF 631
HL-60 = system: HL-60
LOX IMVI = system: LOX IMVI
SF-268 = system: SF-268
COLO 205 = system: COLO 205
TK-10 = system: TK-10
DMS-114 = system: DMS-114
RPMI-8226 = system: RPMI-8226
UACC-257 = system: UACC-257
HOP-62 = system: HOP-62
DMS-273 = system: DMS-273
A498 = system: A498
HCT-116 = system: HCT-116
NCI-H23 = system: NCI-H23
SK-MEL-2 = system: SK-MEL-2
HCT-15 = system: HCT-15
UACC-62 = system: UACC-62
SK-OV-3 = system: SK-OV-3
XF498 = system: XF498
NCI-H226 = system: NCI-H226
OVCAR-4 = system: OVCAR-4
SF-539 = system: SF-539
NCI-H460 = system: NCI-H460
SF-295 = system: SF-295
HT-29 = system: HT-29
DLD-1 = system: DLD-1
786-0 = system: 786-0
NCI-H522 = system: NCI-H522
HCC 2998 = system: HCC 2998
HOP-92 = system: HOP-92
HOP-18 = system: HOP-18
RXF 393 = system: RXF 393
Malme-3M = system: Malme-3M
CCRF-CEM = system: CCRF-CEM

Measured: GI50

CCN1CCC(O)(c2ccc(OC)cc2)C(C(=O)c2ccc(OC)cc2)C1 (stereo not given)
inactive: OVCAR-3 17.6 µM | LXFL 529 20 µM | SR 22.7 µM | K562 26.1 µM | IGROV-1 > 100 µM | MOLT-4 17.5 µM | M14 15.7 µM | UO-31 18.4 µM | SN12C 20 µM | SNB-75 16.4 µM | M19-MEL 18.3 µM | OVCAR-8 22.3 µM | CAKI-1 17.2 µM | SK-MEL-5 15.3 µM | A549 18.1 µM | KM-20L2 18.6 µM | U-251 16.7 µM | SNB-19 28.6 µM | SW-620 10.8 µM | OVCAR-5 18.4 µM | ACHN 16.4 µM | SNB-78 26.1 µM | EKVX 30.5 µM | SK-MEL-28 3.25 µM | KM12 20.5 µM | RXF 631 21.5 µM | HL-60 15.9 µM | LOX IMVI 20 µM | SF-268 20.6 µM | COLO 205 22.9 µM | TK-10 3.28 µM | DMS-114 18.7 µM | RPMI-8226 4.25 µM | UACC-257 20.6 µM | HOP-62 > 100 µM | DMS-273 22.8 µM | A498 > 10 µM | HCT-116 22.8 µM | NCI-H23 17.7 µM | SK-MEL-2 19.6 µM | UACC-62 16.9 µM | SK-OV-3 > 100 µM | XF498 17.6 µM | NCI-H226 > 100 µM | OVCAR-4 17.7 µM | SF-539 17 µM | NCI-H460 24 µM | SF-295 > 100 µM | HT-29 22 µM | DLD-1 16.9 µM | 786-0 13.3 µM | NCI-H522 1.97 µM | HCC 2998 19.4 µM
20.3 µM: HCT-15

Cc1cc2c(C)nn(Cc3ccccc3)c2c(C(=O)O)c1C
> 100 µM: HCT-15
inactive: HOP-92 > 100 µM | HOP-18 > 100 µM | OVCAR-3 > 100 µM | LXFL 529 > 100 µM | SR > 100 µM | IGROV-1 > 100 µM | MOLT-4 > 100 µM | UO-31 > 100 µM | RXF 393 > 100 µM | SN12C > 100 µM | M19-MEL > 100 µM | OVCAR-8 > 100 µM | A549 > 100 µM | KM-20L2 > 100 µM | U-251 > 100 µM | SNB-19 > 100 µM | SW-620 > 100 µM | OVCAR-5 > 100 µM | ACHN > 100 µM | SNB-78 > 100 µM | EKVX > 100 µM | SK-MEL-28 > 100 µM | RXF 631 > 100 µM | HL-60 > 100 µM | LOX IMVI > 100 µM | SF-268 > 100 µM | COLO 205 > 100 µM | TK-10 > 100 µM | RPMI-8226 > 100 µM | UACC-257 > 100 µM | Malme-3M > 100 µM | HOP-62 > 100 µM | DMS-273 > 100 µM | HCT-116 > 100 µM | NCI-H23 > 100 µM | SK-MEL-2 > 100 µM | UACC-62 > 100 µM | SK-OV-3 > 100 µM | XF498 > 100 µM | NCI-H226 > 100 µM | CCRF-CEM > 100 µM | SF-539 > 100 µM | SF-295 > 100 µM | 786-0 > 100 µM | HCC 2998 > 100 µM
